Data taken from patent US20190269721A1, “METHODS AND COMPOSITIONS FOR DEGRADING CALCIUM PHOSPHATE AND FOR TREATING CALCIFICATION DISORDERS” (MERZ NORTH AMERICA, INC., priority 2016, published 2019).
Like-named read-outs stand apart in the source and are kept apart here.

How the values were obtained:
[1] = background statement; cited from earlier work
[2] = Degradation of Radiesse calcium hydroxyapatite filler injected into porcine samples (histology of punch biopsy); details: for dissolution of calcium hydroxyapatite in the samples: 24 hours after treatment, histology
Description: In a prospective, single-center clinical trial, 12 porcine samples (pieces of fresh pork shoulder) were injected with Radiesse®, with volumes ranging from 0.4 to 0.8 mL.
The samples were then randomized to three treatment groups: topical sodium metabisulfite (25% (w/v) SMB, formulated in petrolatum jelly: about 1-2 grams SMB applied topically to each site on the skin, 25% (w/v) sodium metabisulfite in 120 ml gel) application with occlusion, intralesional injection of about 0.2 mL of sodium thiosulfate solution (STS, concentration 12.5 g/50 mL, i.e., 0.25 g/mL or 25% (w/v)), or both. The volume ratio of Radiesse:STS solution ranged from 2:1 to 4:1. In the control group, samples were not treated after the Radiesse® injection.
(§1) Twenty-four hours after treatment, a 4-mm punch biopsy was obtained and processed for histology to evaluate the presence, absence, or degradation of calcium hydroxyapatite (FIGS. 1A-1D). A blinded, board-certified dermatopathologist read the samples and determined the amount of calcium present in each sample.

[3] = Degradation of Radiesse calcium hydroxyapatite filler injected into human skin samples (histology of punch biopsy); details: for dissolution of calcium hydroxyapatite in the samples: 24 hours after treatment, histology
Description: Human skin samples (two living skin samples taken from living tissue in each group) were injected with 0.4 mL Radiesse®.
The samples were then randomized to three treatment groups: topical sodium metabisulfite (25% (w/v) SMB, formulated in petrolatum jelly, about 1-2 grams SMB applied topically to each site on the skin) application with occlusion, intralesional injection of about 0.4-0.8 mL sodium thiosulfate solution (STS, concentration 12.5 g/50 mL i.e., 0.25 g/mL), or both. In the control group, samples were not treated after the Radiesse® injection.
as §1, with “1E-1F).” for “1A-1D).”

[4] = Description: (§2) At visit 1, deep CaHA nodules were injected using a 32-gauge half inch needle with STS (STS, concentration 12.5 g/50 mL, i.e., 0.25 g/mL; 2 injections; 0.3 mL total). At visit 2 (about 3-4 weeks after visit 1), the patient received subsequent injections using a 32-gauge half inch needle on a luer lock syringe of STS (0.3 mL total) to superficial CaHA nodules.
[5] = remark: listed apart in the source
Description: A filler composition comprising CaHA and HA (hyaluronic acid) was used in a subject. 0.4 ml of CaHA was mixed with 0.4 ml of a highly cohesive HA filler and injected into the volar surface of a human forearm. 0.4 ml of intralesional (IL) STS was injected intralesionally into the treated area. 4 hours after treatment, a 5-mm punch biopsy was obtained. H &E was used to evaluate the presence, absence, or degradation of calcium hydroxyapatite and hyaluronic acid. A blinded, board-certified dermatopathologist read the samples and determined the amount of calcium present in each sample.

[6] = 1-2 h post-STS injection
Description: In the prospective histology study, 3 patients received Radiesse® injections (12-20 injections/patient) followed by intralesional STS injection (STS, concentration 12.5 g/50 mL, i.e., 0.25 g/mL) in the abdomen/arm prior to abdominoplasty/brachioplasty. Patients received various Radiesse:STS solution volume ratios ranging from 1:1 to 1:2.5, including patient 1: 0.5 mL CaHA and 0.5 mL STS per site (volume ratio of CaHA:STS is 1:1); patient 2: 0.2 mL CaHA and 0.5 mL STS per site (volume ratio of CaHA:STS is 1:2.5); patient 3: 0.15 mL CaHA and 0.3 mL STS per site (volume ratio of CaHA:STS is 1:2). Tissue was harvested about 1-2 h after STS injection, and a 4-mm punch biopsy was assessed for the presence of CaHA (using hematoxylin-eosin sections).
as §2

[7] = over the next 4 days or so after visit 1

O=C(O)CN(CCN(CC(=O)O)CC(=O)O)CC(=O)O [EDTA, ethylenediaminetetraacetic acid]
ability to dissolve / reduce calcium hydroxyapatite [1]: unsuccessful

O=S([O-])S(=O)(=O)[O-].[Na+].[Na+] [SMB, sodium metabisulfite]
% of calcium hydroxyapatite degraded 24 hrs after treatment [2]: ~50% | dissolution of calcium hydroxyapatite in the samples ([2]; porcine samples): reduced, but did not entirely clear | effects on collagen or surrounding structures [3]: no apparent deleterious effects | dissolution of calcium hydroxyapatite in the samples ([3]; human skin samples): reduced, but did not entirely clear

O=S([O-])([O-])=S.[Na+].[Na+] [STS, sodium thiosulfate]
time until burning sensation resolved ([4]; after immediate ice application): ≤ 1 min | burning sensation upon injection, 10-point pain scale ([4]; both visits): 5-6 | erythema [4, 7]: concomitant reduction in erythema | nodule sizes (patient reported) [4, 7]: progressive reduction in nodule sizes | effect on deep nodules ([4]; visit 1, first STS injection, 0.3 mL total, 0.25 g/mL): immediate softening | time until superficial nodules softened and became semi-fluctuant ([4]; visit 2, STS 0.3 mL total): 1 to 2 min | % of calcium hydroxyapatite degraded 24 hrs after treatment ([2]; porcine samples, 0.4-0.8 mL Radiesse, STS 25% (w/v) about 0.2 mL intralesional, SMB 25% (w/v) topical with occlusion, 4-mm punch biopsy): 100% | dissolution of calcium hydroxyapatite in the samples ([2]; porcine samples): completely dissolved | reduction of the amount of calcium phosphate tissue filler ([5]; about 24 hours after administration): about 100% | effects on collagen or surrounding structures ([5]; human tissue, intralesional STS): no apparent deleterious effects | dissolution of CaHA in a mixture of CaHA and HA ([5]; reduced time period of 4 hours): completely dissolve | dissolution of calcium hydroxyapatite in the sample ([5]; twenty-four hours after intralesional STS injection, 0.4 ml STS, 0.4 ml CaHA + 0.4 ml HA): completely dissolved | % of calcium hydroxyapatite degraded 24 hrs after treatment ([3]; human skin samples, 0.4 mL Radiesse, STS 0.25 g/mL about 0.4-0.8 mL intralesional, SMB 25% (w/v) topical with occlusion, 4-mm punch biopsy): 100% | dissolution of calcium hydroxyapatite in the samples ([3]; human skin samples): completely dissolved | effects on collagen or surrounding structures ([3]; human tissue, intralesional STS and/or topical SMB): no apparent deleterious effects | CaHA dissolution in histologic analyses ([6]; all human tissue samples, CaHA:STS volume ratio 1:1 to 1:2.5): markedly dissolved | CaHA decrease ([6]; human tissue samples): no less than 70%

hyaluronidase
ability to dissolve / reduce calcium hydroxyapatite [1]: cannot effectively dissolve
